Assay results as given in US20130217702A1 (Richter Gedeon Nyrt., priority 2010, published 2013).

Legend:
[1] = biological target: T1, recombinant human B1 receptors (Homo sapiens, UniProt P46663); test: Functional assay: antagonist potency by cytosolic calcium measurement (plate reader fluorimeter) in CHO-B1 cells, agonist LysDABK; type: cell-based; details: CHO-B1 cells, inhibition of LysDABK (EC80)-evoked [Ca2+]i elevation; read-out: B1 func.
T1 construct: host or cells: CHO (CHO-B1)
T1 sequence (P46663 1-353): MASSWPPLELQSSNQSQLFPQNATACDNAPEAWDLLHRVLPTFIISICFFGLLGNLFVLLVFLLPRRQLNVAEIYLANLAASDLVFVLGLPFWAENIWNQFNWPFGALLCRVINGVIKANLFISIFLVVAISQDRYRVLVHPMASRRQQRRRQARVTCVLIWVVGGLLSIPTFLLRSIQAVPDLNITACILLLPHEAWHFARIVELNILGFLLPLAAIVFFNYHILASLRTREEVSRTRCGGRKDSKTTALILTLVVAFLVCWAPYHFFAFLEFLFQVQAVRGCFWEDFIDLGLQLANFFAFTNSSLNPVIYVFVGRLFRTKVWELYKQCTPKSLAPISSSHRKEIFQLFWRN
How it was run: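 IC50 is the concentration giving half-maximal inhibition of the LysDABK (EC80) calcium response, fitted from at least three experiments. CHO cells stably expressing human B1 were dye-loaded, exposed to compound for 20-25 min, then read by fluo-4 fluorescence (ΔF/F) at 37 °C.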

[2] = biological target: T2, human recombinant bradykinin B1 receptor (Homo sapiens, UniProt P46663); test: Human recombinant bradykinin B1 receptor competitive radioligand binding; details: hB1 expressed in CHO cells, [3H]-[Des-Arg10] Kallidin radioligand; read-out: B1 binding
T2 construct: host or cells: CHO cells, clone hB1-A5
T2 sequence (P46663 1-353): T1 sequence (P46663 1-353)
How it was run: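 Membranes from CHO cells expressing hB1 (20 μg protein/tube) incubated 15 min at 25° C. with [3,4-prolyl-3,4-^3H(N)]-[Des-Arg^10] Kallidin; nonspecific binding defined with 10 μM Lys-des-Arg^9-Bradykinin. Bound label collected by filtration and counted. IC50 from ≥7-point curves in triplicate; Ki by Cheng-Prusoff.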

| Compound | IC50 [1] [nM] | Ki [2] [nM] |
| --- | --- | --- |
| Cc1nc(-c2c(Cl)c3cc(Cl)ccc3n2-c2ccc(CNC(=O)C3(NC(=O)c4cc(C5CC5)on4)CC3)cc2)no1 [Example 75, 5-Cyclopropyl-isoxazole-3-carboxylic acid (1-{4-[3,5-dichloro-2-(5-methyl-[1,2,4]oxadiazol-3-yl)-indol-1-yl]-benzylcarbamoyl}-cyclopropyl)-amide] | < 20 | < 20 |
| Cc1nc(-c2c(Cl)c3cc(Cl)ccc3n2-c2ccc(CNC(=O)C3(NC(=O)c4cncc(C(F)(F)F)c4)CC3)cc2)no1 [Example 76, N-(1-{4-[3,5-Dichloro-2-(5-methyl-[1,2,4]oxadiazol-3-yl)-indol-1-yl]-benzylcarbamoyl}-cyclopropyl)-5-trifluoromethyl-nicotinamide] | < 20 | < 20 |
| CSc1ncc(C(=O)NC2(C(=O)NCc3ccc(-n4c(-c5noc(C)n5)c(Cl)c5ccccc54)cc3)CC2)cn1 [Example 77, 2-Methylsulfanyl-pyrimidine-5-carboxylic acid (1-{4-[3-chloro-2-(5-methyl-[1,2,4]oxadiazol-3-yl)-indol-1-yl]-benzylcarbamoyl}-cyclopropyl)-amide] | < 20 | < 20 |
| COc1ccc2c(c1)cc(-c1nc(C)no1)n2-c1ccc(CNC(=O)C2(NC(=O)CC(F)(F)F)CC2)cc1 [Example 78, 1-(3,3,3-Trifluoro-propionylamino)-cyclopropanecarboxylic acid 4-[5-methoxy-2-(3-methyl-[1,2,4]oxadiazol-5-yl)-indol-1-yl]-benzylamide] | < 20 | < 20 |
| COc1ccc2c(c1)cc(-c1nc(C)no1)n2-c1ccc(CNC(=O)C2(NC(=O)c3cncc(C(F)(F)F)c3)CC2)cc1 [Example 79, N-(1-{4-[5-Methoxy-2-(3-methyl-[1,2,4]oxadiazol-5-yl)-indol-1-yl]-benzylcarbamoyl}-cyclopropyl)-5-trifluoromethyl-nicotinamide] | < 20 | < 20 |
| COc1ccc2c(c1)cc(-c1nc(C)no1)n2-c1ccc(CNC(=O)C2(NC(=O)c3cc(OC)no3)CC2)cc1 [Example 80, 3-Methoxy-isoxazole-5-carboxylic acid (1-{4-[5-methoxy-2-(3-methyl-[1,2,4]oxadiazol-5-yl)-indol-1-yl]-benzylcarbamoyl}-cyclopropyl)-amide] | < 20 | < 20 |
| Cc1nc(-c2cc3ccccc3n2-c2ccc(CNC(=O)C3(NC(=O)CC(F)(F)F)CC3)cc2)no1 [Example 81, 1-(3,3,3-Trifluoro-propionylamino)-cyclopropanecarboxylic acid 4-[2-(5-methyl-[1,2,4]oxadiazol-3-yl)-indol-1-yl]-benzylamide] | < 20 | < 20 |
| Cc1nc(-c2cc3ccccc3n2-c2ccc(CNC(=O)C3(NC(=O)c4cncc(C(F)(F)F)c4)CC3)cc2)no1 [Example 82, N-(1-{4-[2-(5-Methyl-[1,2,4]oxadiazol-3-yl)-indol-1-yl]-benzylcarbamoyl}-cyclopropyl)-5-trifluoromethyl-nicotinamide] | < 20 | < 20 |
| Cc1noc(-c2cc3ccccc3n2-c2ccc(CNC(=O)C3(NC(=O)c4cncc(C(F)(F)F)c4)CC3)cc2)n1 [Example 83, N-(1-{4-[2-(3-Methyl-[1,2,4]oxadiazol-5-yl)-indol-1-yl]-benzylcarbamoyl}-cyclopropyl)-5-trifluoromethyl-nicotinamide] | < 20 | < 20 |
| N#Cc1cc2ccccc2n1-c1ccc(CNC(=O)C2(NC(=O)c3cncc(C(F)(F)F)c3)CC2)cc1 [Example 84, N-{1-[4-(2-Cyano-indol-1-yl)-benzylcarbamoyl]-cyclopropyl}-5-trifluoromethyl-nicotinamide] | < 20 | < 20 |
| Cc1nc(-c2c(Cl)c3cc(F)ccc3n2-c2ccc(CNC(=O)C3(NC(=O)c4cccnc4Cl)CC3)cc2)no1 [Example 85, 2-Chloro-N-(1-{4-[3-chloro-5-fluoro-2-(5-methyl-[1,2,4]oxadiazol-3-yl)-indol-1-yl]-benzylcarbamoyl}-cyclopropyl)-nicotinamide] | < 20 | < 20 |
| Cc1nc(-c2c(Cl)c3cc(F)ccc3n2-c2ccc(CNC(=O)C3(NC(=O)c4cccc(F)c4)CC3)cc2)no1 [Example 86, N-(1-{4-[3-Chloro-5-fluoro-2-(5-methyl-[1,2,4]oxadiazol-3-yl)-indol-1-yl]-benzylcarbamoyl}-cyclopropyl)-3-fluoro-benzamide] | < 20 | < 20 |
| Cc1cnc(C(=O)NC2(C(=O)NCc3ccc(-n4c(-c5noc(C)n5)c(Cl)c5cc(F)ccc54)cc3)CC2)cn1 [Example 87, 5-Methyl-pyrazine-2-carboxylic acid (1-{4-[3-chloro-5-fluoro-2-(5-methyl-[1,2,4]oxadiazol-3-yl)-indol-1-yl]-benzylcarbamoyl}-cyclopropyl)-amide] | < 20 | < 20 |
| Cc1cc(C(=O)NC2(C(=O)NCc3ccc(-n4c(-c5noc(C)n5)c(Cl)c5cc(F)ccc54)cc3)CC2)no1 [Example 88, 5-Methyl-isoxazole-3-carboxylic acid (1-{4-[3-chloro-5-fluoro-2-(5-methyl-[1,2,4]oxadiazol-3-yl)-indol-1-yl]-benzylcarbamoyl}-cyclopropyl)-amide] | < 20 | < 20 |
| Cc1nc(-c2c(Cl)c3cc(F)ccc3n2-c2ccc(CNC(=O)C3(NC(=O)c4ccnc(F)c4)CC3)cc2)no1 [Example 89, N-(1-{4-[3-Chloro-5-fluoro-2-(5-methyl-[1,2,4]oxadiazol-3-yl)-indol-1-yl]-benzylcarbamoyl}-cyclopropyl)-2-fluoro-isonicotinamide] | < 20 | < 20 |
| Cc1nc(-c2c(Cl)c3cc(F)ccc3n2-c2ccc(CNC(=O)C3(NC(=O)c4cc(C5CC5)on4)CC3)cc2)no1 [Example 90, 5-Cyclopropyl-isoxazole-3-carboxylic acid (1-{4-[3-chloro-5-fluoro-2-(5-methyl-[1,2,4]oxadiazol-3-yl)-indol-1-yl]-benzylcarbamoyl}-cyclopropyl)-amide] | < 20 | < 20 |
| Cc1nc(-c2c(Cl)c3cc(F)ccc3n2-c2ccc(CNC(=O)C3(NC(=O)c4cncc(C(F)(F)F)c4)CC3)cc2)no1 [Example 91, N-(1-{4-[3-Chloro-5-fluoro-2-(5-methyl-[1,2,4]oxadiazol-3-yl)-indol-1-yl]-benzylcarbamoyl}-cyclopropyl)-5-trifluoromethyl-nicotinamide] | < 20 | < 20 |
| Cc1nc(-c2c(Cl)c3ccccc3n2-c2ccc(CNC(=O)C3(NC(=O)c4cccc(C(F)(F)F)c4F)CC3)cc2)no1 [Example 92, N-(1-{4-[3-Chloro-2-(5-methyl-[1,2,4]oxadiazol-3-yl)-indol-1-yl]-benzylcarbamoyl}-cyclopropyl)-2-fluoro-3-trifluoromethyl-benzamide] | < 20 | < 20 |
| Cc1nc(-c2c(Cl)c3ccccc3n2-c2ccc(CNC(=O)C3(NC(=O)c4ccc(C(F)(F)F)c(F)c4)CC3)cc2)no1 [Example 93, N-(1-{4-[3-Chloro-2-(5-methyl-[1,2,4]oxadiazol-3-yl)-indol-1-yl]-benzylcarbamoyl}-cyclopropyl)-3-fluoro-4-trifluoromethyl-benzamide] | 20 to 100 | 20 to 100 |
| Cc1nc(-c2c(Cl)c3ccccc3n2-c2ccc(CNC(=O)C3(NC(=O)c4cc(F)cc(C(F)(F)F)c4)CC3)cc2)no1 [Example 94, N-(1-{4-[3-Chloro-2-(5-methyl-[1,2,4]oxadiazol-3-yl)-indol-1-yl]-benzylcarbamoyl}-cyclopropyl)-3-fluoro-5-trifluoromethyl-benzamide] | < 20 | < 20 |
| Cc1nc(-c2c(Cl)c3ccccc3n2-c2ccc(CNC(=O)C3(NC(=O)c4cccnc4F)CC3)cc2)no1 [Example 95, N-(1-{4-[3-Chloro-2-(5-methyl-[1,2,4]oxadiazol-3-yl)-indol-1-yl]-benzylcarbamoyl}-cyclopropyl)-2-fluoro-nicotinamide] | < 20 | < 20 |
| Cc1nc(-c2c(Cl)c3ccccc3n2-c2ccc(CNC(=O)C3(NC(=O)c4cc(C(F)(F)F)ccc4F)CC3)cc2)no1 [Example 96, N-(1-{4-[3-Chloro-2-(5-methyl-[1,2,4]oxadiazol-3-yl)-indol-1-yl]-benzylcarbamoyl}-cyclopropyl)-2-fluoro-5-trifluoromethyl-benzamide] | < 20 | < 20 |
| Cc1nc(-c2c(Cl)c3ccccc3n2-c2ccc(CNC(=O)C3(NC(=O)c4ccncc4F)CC3)cc2)no1 [Example 97, N-(1-{4-[3-Chloro-2-(5-methyl-[1,2,4]oxadiazol-3-yl)-indol-1-yl]-benzylcarbamoyl}-cyclopropyl)-3-fluoro-isonicotinamide] | 20 to 100 | < 20 |
